Laboratory results from US8722663B2, “Di-substituted pyridine derivatives as anticancers” (Otsuka Pharmaceutical Co., Ltd., priority 2010, dated 2014).
Counter-ions that a name gives are not always drawn.

How the values were obtained:
Format in all cases: cell-based
Settings in all cases: 120 h, 5 days with test compound
[1] = test system: human prostate (adenocarcinoma) cell line (VcaP); test: Growth inhibition of VcaP cells, WST-8 assay
Experimental: (§1) The growth inhibition on a bicalutamide resistant human prostate cancer cell line established from LNCaP.FGC (LNCaP-Bic) (Hobisch A, et al. Prostate. 2006; 66(4):413-20.) was determined by a WST-8 assay according to the method of Singh A K, et al. (Cancer Lett. 1996 Oct. 1; 107(1): 109-15.). In this method, LNCaP-Bic cells were seeded in RPMI 1640 medium containing 10% fetal bovine serum in a 96-well microplate and incubated at 37° C. for 24 hours in the presence of 5% carbon dioxide. Then, the test compound was added and the cells were incubated for another 5 days. After incubation, a 15-μL volume of WST-8 (2-(2-methoxy-4-nitrophenyl)-3-(4-nitrophenyl)-5-(2,4-[…])-2H-tetrazolium, monosodium salt) was added. After the incubation for the time, the color reaction was stopped by adding 15 μL of 1% SDS (sodium dodecyl sulfate) solution and the optical density was determined at the measurement wavelength of 450 nm and the reference wavelength of 630 nm, and the difference was calculated. The cell growth activity in each well was defined as the value determined by subtracting the OD in the control well not containing cells (the difference in absorbance between 450 nm and 630 nm) from that in the test well.
(§2) The 50% inhibitory concentration (IC50 (nM)) of the test compound was determined by comparing the cell growth activity in the well containing the test compound with that of the control not containing the test compound.
The growth inhibition on a human prostate (adenocarcinoma) cell line (VcaP) (Korenchuk S, et al. In Vivo. 2001; 15(2):163-8.) was also determined by the above method.

[2] = test system: bicalutamide resistant human prostate cancer cell line established from LNCaP.FGC (LNCaP-Bic); test: Growth inhibition of LNCaP-Bic cells, WST-8 assay
Experimental: as §1, §2

[3] = test system: human prostate (carcinoma) cell line (DU 145); test: Growth inhibition of DU 145 cells, WST-8 assay
Experimental: as §1, §2
The growth inhibition on a human prostate (carcinoma) cell line (DU 145) (van Bokhoven A, et al. Prostate. 2003; 57(3):205-25.) was also determined by the above method.

[4] = test system: human prostate (carcinoma) cell line (LNCaP.FGC); test: Growth inhibition of LNCaP.FGC cells, WST-8 assay
Experimental: as §1, §2
The growth inhibition on a human prostate (carcinoma) cell line (LNCaP.FGC) (van Bokhoven A, et al. Prostate. 2003; 57(3):205-25.) was also determined by the above method.

[5] = test system: human prostate (adenocarcinoma) cell line (PC-3); test: Growth inhibition of PC-3 cells, WST-8 assay
Experimental: as §1, §2
The growth inhibition on a human prostate (adenocarcinoma) cell line (PC-3) (van Bokhoven A, et al. Prostate. 2003; 57(3):205-25.) was also determined by the above method.

Measured: IC50

Cc1cc(/C=C/C(=O)N2CCN(Cc3ccc(CCOc4ccc(Cl)cc4)cc3)CC2)cc(Cl)c1Oc1ccc(OCc2ccccc2Cl)cn1 [Example 466, (E)-3-[3-Chloro-4-({5-[(2-chlorobenzyl)oxy]pyridin-2-yl}oxy)-5-methylphenyl]-1-(4-{4-[2-(4-chlorophenoxy)ethyl]benzyl}piperazin-1-yl)prop-2-en-1-one hydrochloride]
< 10 nM: all assays above

Cc1ccc(OCCc2ccc(CN3CCN(C(=O)/C=C/c4cc(C)c(Oc5ccc(OCc6ccccc6Cl)cn5)c(Cl)c4)CC3)cc2)cc1 [Example 452, (E)-3-[3-Chloro-4-({5-[(2-chlorobenzyl)oxy]pyridin-2-yl}oxy)-5-methylphenyl]-1-(4-{4-[2-(4-methylphenoxy)ethyl]benzyl}piperazin-1-yl)prop-2-en-1-one hydrochloride]
< 10 nM: all assays above

COc1ccc(COc2ccc(Oc3c(C)cc(/C=C/C(=O)N4CCN(Cc5ccc(CCOc6ccc(C)cc6)cc5C)CC4)cc3C)nc2)cc1 [Example 611, (E)-3-[4-({5-[(4-Methoxybenzyl)oxy]pyridin-2-yl}oxy)-3,5-dimethylphenyl]-1-(4-{2-methyl-4-[2-(4-methylphenoxy)ethyl]benzyl}piperazin-1-yl)prop-2-en-1-one hydrochloride]
< 10 nM: all assays above

Cc1ccc(COc2ccc(Oc3c(C)cc(/C=C/C(=O)N4CCN(Cc5ccc(CCOc6ccc(F)cc6)cc5)[C@@H](C)C4)cc3Cl)nc2)cc1 [Example 392, (E)-3-[3-chloro-5-methyl-4-({5-[(4-methylbenzyl)oxy]pyridin-2-yl}oxy)phenyl]-1-[(3S)-4-{4-[2-(4-fluorophenoxy)ethyl]benzyl}-3-methylpiperazin-1-yl]prop-2-en-1-one]
< 10 nM: all assays above

CC(C)c1ccc(OCCc2ccc(CN3CCN(C(=O)/C=C/c4ccc(Oc5ccc(OCc6ccc(C#N)cc6)cn5)c(F)c4)CC3)cc2)cc1 [Example 593, 4-({[6-(2-Fluoro-4-{(E)-3-oxo-3-[4-(4-{2-[4-(propan-2-yl)phenoxy]ethyl}benzyl)piperazin-1-yl]prop-1-en-1-yl}phenoxy)pyridin-3-yl]oxy}methyl)benzonitrile hydrochloride]
< 10 nM: all assays above

Cc1ccc(OCCc2ccc(CN3CCN(C(=O)/C=C/c4cc(C)c(Oc5ccc(OCc6ccccc6F)cn5)c(Cl)c4)CC3)cc2)cc1 [Example 451, (E)-3-[3-Chloro-4-({5-[(2-fluorobenzyl)oxy]pyridin-2-yl}oxy)-5-methylphenyl]-1-(4-{4-[2-(4-methylphenoxy)ethyl]benzyl}piperazin-1-yl)prop-2-en-1-one hydrochloride]
< 10 nM: all assays above

Cc1ccc(OCCc2ccc(CN3CCN(C(=O)/C=C/c4cc(C)c(Oc5ccc(OCc6cscn6)cn5)c(C)c4)CC3)cc2)cc1 [Example 601, (E)-3-(3,5-Dimethyl-4-{[5-(1,3-thiazol-4-ylmethoxy)pyridin-2-yl]oxy}phenyl)-1-(4-{4-[2-(4-methylphenoxy)ethyl]benzyl}piperazin-1-yl)prop-2-en-1-one hydrochloride]
< 10 nM: all assays above
